{"source": "patent US20260256659A1", "about": "“COMPLEX FOR SEALING DENTINAL TUBULE, REAGENT FOR TREATING DENTIN HYPERSENSITIVITY, AND USE THEREOF” (ANHUI MEDICAL UNIVERSITY, priority 2023, published 2026)", "system": "Streptococcus mutans", "assay": "In vitro antibacterial properties, turbidimetric method and plate coating method", "assay_type": "cell-based", "details": "bacterial absorbance after 4 h incubation and bacterial number counting", "description": "The anti-Streptococcus mutans performance of the prepared dentin sealing materials was evaluated by a turbidimetric method and a plate coating method.", "data": [{"smiles": "[Cl-].[Cl-].[Sr+2]", "note": "[Sr, strontium chloride]", "values": [{"measurement": "ability to inhibit Streptococcus mutans", "value": "ability to inhibit Streptococcus mutans"}]}]}
